Assay results: patent US20090143279A1 (priority 2007, published 2009)
Like-named read-outs stand apart in the source and are kept apart here.

Assays:
reactive oxygen species = format: cell-based, mouse; settings: Conc 20 μM; for ROS (composite Z-score): normalized score vs mock-treated (DMSO) wells
cytochrome c = format: cell-based, mouse; settings: Conc 20 μM; for cyt c (composite Z-score): normalized score vs mock-treated (DMSO) wells
nuOXPHOS transcripts = format: cell-based, mouse; settings: Conc 20 μM; for nucOX (composite Z-score): normalized score vs mock-treated (DMSO) wells
[1] = tested on: cellular dehydrogenase activity; settings: Conc 20 μM; for MTT (composite Z-score): normalized score vs mock-treated (DMSO) wells
mtOXPHOS transcripts = format: cell-based, mouse; settings: Conc 20 μM; for mitoOX (composite Z-score): normalized score vs mock-treated (DMSO) wells
C2C12 myotubes = settings: Conc 20 μM; for Viability (composite Z-score): normalized score vs mock-treated (DMSO) wells
OXPHOS gene expression = format: cell-based, mouse; settings: Conc 20 μM; for GE-HTS (composite Z-score): normalized score vs mock-treated (DMSO) wells
[2] = tested on: mitochondrial membrane potential; format: cell-based, mouse; settings: Conc 20 μM; for ΔΨm (composite Z-score): normalized score vs mock-treated (DMSO) wells
[3] = composite Z-score vs mock-treated (DMSO) wells
[4] = normalized composite Z-score vs mock-treated (DMSO) wells

With `C=C1C2CC[C@@]3(C)[C@H](c4ccoc4)OC(=O)C[C@]13O[C@H]1CC(=O)C(C)(C)[C@H](C(OC(C)=O)C(=O)OC)[C@@]21C` (stereo partly shown) [6-acetoxyangolensic acid methyl ester] the “ROS (composite Z-score)” value (reactive oxygen species) was 1.137, the “cyt c (composite Z-score)” value (cytochrome c) was −0.105 and the “nucOX (composite Z-score)” value (nuOXPHOS transcripts) was 1.291. For the same molecule, the “MTT (composite Z-score)” value [1] was −0.663, the “mitoOX (composite Z-score)” value (mtOXPHOS transcripts) was 1.272 and the “Viability (composite Z-score)” value (C2C12 myotubes) was 0.671. For the same molecule, the “GE-HTS (composite Z-score)” value (OXPHOS gene expression) was 1.379 and the “ΔΨm (composite Z-score)” value [2] was −0.055.

`C=C1C2CC[C@@]3(C)[C@H](c4ccoc4)OC(=O)C[C@]13O[C@H]1CC(=O)C(C)(C)[C@H](C(O)C(=O)OC)[C@@]21C` (stereo partly shown) [6-hydroxyangolensic acid methyl ester] showed an ROS (reactive oxygen species; [3]) of −0.249, a cyt c (cytochrome c; [3]) of 0.817 and a nucOX (nuOXPHOS transcripts; [3]) of −1.425. It also gave an MTT [1, 3] of −0.490, a mitoOX (mtOXPHOS transcripts; [3]) of −1.206 and a Viability (C2C12 myotubes; [3]) of 1.224. It also gave a GE-HTS (OXPHOS gene expression; [3]) of −1.426 and a ΔΨm [2, 3] of 0.463.

`CC(=O)OCC(=O)[C@@]1(O)CC[C@H]2[C@@H]3C[C@H](C)C4=CC(=O)C=C[C@]4(C)[C@H]3[C@@H](O)C[C@@]21C` [6alpha-methylprednisolone acetate] was tested, and the “ROS (composite Z-score)” value (reactive oxygen species) was 0.321, the “cyt c (composite Z-score)” value (cytochrome c) was −0.364 and the “nucOX (composite Z-score)” value (nuOXPHOS transcripts) was −0.518. The “MTT (composite Z-score)” value [1] was −1.192, the “mitoOX (composite Z-score)” value (mtOXPHOS transcripts) was 0.750 and the “Viability (composite Z-score)” value (C2C12 myotubes) was −0.480. The “GE-HTS (composite Z-score)” value (OXPHOS gene expression) was −0.130 and the “ΔΨm (composite Z-score)” value [2] was −0.462.

In the case of `CC1(C)C(=O)C=C[C@@]2(C)C1CC(=O)[C@@]1(C)C3=CC(=O)O[C@@H](c4ccoc4)[C@]3(C)CCC12` (stereo partly shown) [7-deacetoxy-7-oxodeoxygedunin], the ROS (reactive oxygen species; [3]) was −0.489, the cyt c (cytochrome c; [3]) was 0.166 and the nucOX (nuOXPHOS transcripts; [3]) was −1.586. For the same molecule, the MTT [1, 3] was −1.467, the mitoOX (mtOXPHOS transcripts; [3]) was −1.925 and the Viability (C2C12 myotubes; [3]) was 0.224. It also gave a GE-HTS (OXPHOS gene expression; [3]) of −1.791 and a ΔΨm [2, 3] of 0.757.

`CC(=O)O[C@H]1C[C@@H](OC(C)=O)C(C)(C)C2CC(=O)[C@]3(C)C(CC[C@@]4(C)[C@H](c5ccoc5)OC(=O)[C@H]5O[C@]543)[C@]21C` (stereo partly shown) [7-deacetoxy-7-oxokhivorin] was tested, and the ROS (reactive oxygen species; [3]) was 0.070, the cyt c (cytochrome c; [3]) was −0.184 and the nucOX (nuOXPHOS transcripts; [3]) was 0.690. It also gave an MTT [1, 3] of −0.095, a mitoOX (mtOXPHOS transcripts; [3]) of 0.738 and a Viability (C2C12 myotubes; [3]) of 0.053. For the same molecule, the GE-HTS (OXPHOS gene expression; [3]) was 0.777 and the ΔΨm [2, 3] was 0.258.

`CC(=O)O[C@H]1C[C@@H](OC(C)=O)C(C)(C)C2C[C@@H](O)[C@]3(C)C(CC[C@@]4(C)[C@H](c5ccoc5)OC(=O)[C@H]5O[C@]543)[C@]21C` (stereo partly shown) [7-deacetylkhivorin] showed an ROS (reactive oxygen species; [3]) of −0.618, a cyt c (cytochrome c; [3]) of 0.079 and a nucOX (nuOXPHOS transcripts; [3]) of 0.543. The MTT [1, 3] was 0.608, the mitoOX (mtOXPHOS transcripts; [3]) was 0.188 and the Viability (C2C12 myotubes; [3]) was 0.893. For the same molecule, the GE-HTS (OXPHOS gene expression; [3]) was 0.477 and the ΔΨm [2, 3] was −0.049.

For `CC1(C)C(=O)C=C[C@]2(C)[C@H]3CC[C@@]4(C)[C@H](c5ccoc5)OC(=O)[C@H]5O[C@]54[C@]3(C)C=C[C@@H]12` [7-desacetoxy-6,7-dehydrogedunin], the ROS (reactive oxygen species; [4]) was −3.492, the cyt c (cytochrome c; [4]) was 0.198 and the nucOX (nuOXPHOS transcripts; [4]) was −0.695. For the same molecule, the MTT [1, 4] was −1.891, the mitoOX (mtOXPHOS transcripts; [4]) was −2.631 and the Viability (C2C12 myotubes; [4]) was −0.973. For the same molecule, the GE-HTS (OXPHOS gene expression; [4]) was −1.430 and the ΔΨm [2, 4] was −1.799.

`COc1ccc(-c2coc3c(OC)c(O)ccc3c2=O)cc1` [7-hydroxy-8,4′-dimethoxyisoflavone] was tested, and the ROS (reactive oxygen species; [4]) was 1.404, the cyt c (cytochrome c; [4]) was 0.363 and the nucOX (nuOXPHOS transcripts; [4]) was −0.994. For the same molecule, the MTT [1, 4] was −1.073, the mitoOX (mtOXPHOS transcripts; [4]) was −0.667 and the Viability (C2C12 myotubes; [4]) was −1.022. The GE-HTS (OXPHOS gene expression; [4]) was −0.962 and the ΔΨm [2, 4] was −0.417.

With `COc1ccc2c(=O)ccoc2c1` [7-methoxychromone] the ROS (reactive oxygen species; composite Z-score vs DMSO) was 0.919, the cyt c (cytochrome c; composite Z-score vs DMSO) was 0.511 and the nucOX (nuOXPHOS transcripts; composite Z-score vs DMSO) was −0.818. It also gave an MTT ([1]; composite Z-score vs DMSO) of −0.963, a mitoOX (mtOXPHOS transcripts; composite Z-score vs DMSO) of −0.451 and a Viability (C2C12 myotubes; composite Z-score vs DMSO) of −0.999. For the same molecule, the GE-HTS (OXPHOS gene expression; composite Z-score vs DMSO) was −0.759 and the ΔΨm ([2]; composite Z-score vs DMSO) was −0.875.

`COC(=O)C1(C)CCCC2(C)c3ccc(C(C)C)cc3C(=O)CC12` (stereo not shown) [7-oxocallitrisic acid, methyl ester] was tested, and the ROS (reactive oxygen species; composite Z-score vs DMSO) was 0.162, the cyt c (cytochrome c; composite Z-score vs DMSO) was −0.923 and the nucOX (nuOXPHOS transcripts; composite Z-score vs DMSO) was −0.457. The MTT ([1]; composite Z-score vs DMSO) was 0.111, the mitoOX (mtOXPHOS transcripts; composite Z-score vs DMSO) was −1.555 and the Viability (C2C12 myotubes; composite Z-score vs DMSO) was 1.266. The GE-HTS (OXPHOS gene expression; composite Z-score vs DMSO) was −0.876 and the ΔΨm ([2]; composite Z-score vs DMSO) was 2.079.

For `COc1ccccc1-c1cc(=O)c2cccc(OC)c2o1` [8,2′-dimethoxyflavone], the “ROS (composite Z-score)” value (reactive oxygen species) was 1.219, the “cyt c (composite Z-score)” value (cytochrome c) was 0.864 and the “nucOX (composite Z-score)” value (nuOXPHOS transcripts) was −0.414. For the same molecule, the “MTT (composite Z-score)” value [1] was −0.556, the “mitoOX (composite Z-score)” value (mtOXPHOS transcripts) was −0.811 and the “Viability (composite Z-score)” value (C2C12 myotubes) was −1.096. For the same molecule, the “GE-HTS (composite Z-score)” value (OXPHOS gene expression) was −0.593 and the “ΔΨm (composite Z-score)” value [2] was 1.282.
